From ChEMBL document CHEMBL1145191, “NMR studies reveal structural differences between the gallium and yttrium complexes of DOTA-D-Phe1-Tyr3-octreotide” (J Med Chem, 2005)

Test: Half-life time of the compound
Assay type: ADME

T1/2: 1.13 h
Substance: GaIII-DOTATOC
